Values of other authors, collected in patent US20030096243A1, “Methods and reagents for live-cell gene expression quantification” (priority 2000, published 2003).
Ends that are not written are not given here. * marks the point of attachment. FITC = O=C1OC2(c3ccc(O)cc3Oc3cc(O)ccc32)c2ccc(NC(=S)*)cc21

Legend:
N protein = biological target: T1, N protein (Escherichia phage lambda, UniProt P03045); details: native sequence GCCCUGAAAAAGGGC (SEQ ID NO: 45)
T1 sequence (P03045 1-107): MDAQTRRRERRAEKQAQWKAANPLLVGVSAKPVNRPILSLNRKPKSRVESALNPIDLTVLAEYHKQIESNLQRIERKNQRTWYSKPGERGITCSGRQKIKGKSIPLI

[1] = system: boxB RNA stem-loop structure

Q: With “GCCCUAAAAAAGGGC (chemistry not given here) [SEQ ID NO: 44]” as the substance, how does the “in vivo activity relative to the native boxB sequence” value (N protein) read?
A: less than 1%

Q: Which “in vivo activity relative to the native boxB sequence” value (N protein) does the source give for “GCCCUAGAAAAGGGC (chemistry not given here) [SEQ ID NO: 46]” here?
A: ~90%

Q: Which “affinity for boxB RNA” value [1] does the source give for “N1-22: arginine-rich peptide comprising the first twenty-two amino acids of bacteriophage λ N protein ({FITC}-MDAQTRRRERRAEKQAQWKAANKG; not fully specified (residue 23); also: doubly labeled)” here?
A: high affinity
